From PMC12920295, “Novel radiohybrid PET-Tracers for SST2-targeted imaging of neuroendocrine tumors” (European Journal of Nuclear Medicine and Molecular Imaging, 2025)
Like-named read-outs stand apart in the source and are kept apart here.

Experiments:
[1] = biological target: T1, human serum albumin (HSA) (Homo sapiens, UniProt P02768); assay: HSA binding by high performance affinity chromatography (HPAC); type: in vitro ADME
T1 construct: purchased H13H-2433
Procedure: For the determination of binding to human serum albumin (HSA) using HPLC, a Chiralpak HSA column (50 × 3 mm, 5 μm, H13H-2433) was used at a constant flow rate of 0.5 ml/min. The mobile phase (A: NH4OAc, 50 mM in H2O, pH 6.9 and B: iPrOH) was freshly prepared for each day.

[2] = Lipophilicity LogDpH=7.4, shake flask method; type: physicochemical; details: PBS (pH = 7.4)/n-octanol, mean of n = 8
Procedure: The LogDpH=7.4 was determined using a modified shake flask method as previously described.

[3] = test system: AR42J cells; assay: Internalization into AR42J cells relative to [125I]TOC; type: cell-based; details: percentage compared to internal reference [125I]TOC
Procedure: AR42J cells (European Collection of Cell Cultures, Salisbury, UK) were grown in RPMI 1640 medium (with 2 mM, L-Glu, 10% FCS; v/v, 37 °C, 5% CO2), harvested 24 ± 2 h and seeded in 24-well poly-L-lysine plates (2.0 × 10^5 cells/well in 1 ml culture medium). After removal of the medium, the cells were washed with assay medium (300 µl, RPMI 1640 with 2 mM L-Glu, 5% BSA; v/v) and incubated in assay medium (200 µl, 15 min, 37 °C, 5% CO2). 25 µl of the ^18F-labeled ligand (20 nM) and [^125I]TOC (1 nM) in assay medium were added followed by either 25 µl TOC in assay medium (100 µM, competition experiment) or 25 µl of assay medium (internalization experiment). Cells were incubated at 37 °C for 15, 30, and 60 min (n = 3 per compound and time point), respectively, and chilled on ice. The supernatant was collected, the well washed with ice-cold RPMI 1640 (300 µl), and the two fractions combined (unbound ligand). The cells were incubated with acid wash solution (300 µl, 0.9% NaCl, 50 mM NaOAc/AcOH buffer, pH = 4.6, 15 min, 4 °C) to remove receptor-bound radioligand. The supernatant was collected, and the cells washed with 300 µl ice-cold acid wash solution (combined fractions: acid releasable, receptor bound ligand). The cells were lysed with NaOH solution (300 µl, 1 M, 15 min, RT), washed with 300 µl of the same solution, the two fractions combined (internalized ligand), and all activities quantified using a γ-counter.

[4] = Biodistribution 1 h p.i. in AR42J xenograft bearing CD1 nu/nu mice; type: in vivo; details: female, mouse, intravenous, total radioactivity, average ± Stdev
Procedure: (§1) The 8-week-old female CD1 nu/nu mice were purchased from Charles River (Sulzfeld, Germany). Animal experiments were conducted according to general animal welfare regulations (German animal protection act, as amended on 18.05.2018, Art. 141 G v. 29.3.2017 I 626, approval no. 55.2-1.2-54–2532-71-13 by the General Administration of the Free State of Bavaria; Swiss animal welfare regulations: Animal Welfare Act SR 455, license: Canton de Vaud, 3781 d). To establish tumor xenografts, AR42J cells (5 × 10^6 cells in 100 µl serum-free culture medium) were inoculated subcutaneously onto the shoulder. Mice were used for experiments when tumors had grown to a diameter of 5–9 mm (7–15 days after inoculation).
Approximately 0.5–2.5 MBq (0.05–0.20 nmol) of the ^18F-labeled ligands were injected into the tail vein of AR42J xenograft-bearing mice under isoflurane anesthesia (1.5% alveolar concentration). The mice were sacrificed 1 h post injection (n = 3–5). Organs were removed, weighed, and the activity quantified (γ-counter).
An unpaired Welch’s t-test was applied using the GraphPad Prism software (version 10.1.2). Standard deviations for tumor-to-organ (T/O) ratios were calculated using the rules of error propagation. Thresholds for statistical significance are defined as: p > 0.05 (ns); p ≤ 0.05 (*); p ≤ 0.01 (**); p ≤ 0.001 (***); p ≤ 0.0001 (****).

[5] = In-vitro stability in PBS, human serum and mouse liver extract; type: in vitro ADME; details: 1 h, 37 °C, radio RP-HPLC
Procedure: [^natF][^68Ga]rhTATE (ca. 5 MBq) was added to 500 µl samples of mouse liver extract, human serum, or PBS, respectively. The mixtures were incubated at 37 °C for 60 min. Workup of blood and liver extract samples was performed using cartridge purification (StrataX cartridge, 33 μm Polymeric Reversed Phase, 500 mg; preconditioning: 500 µl MeOH, 5 ml H2O; washing: 3 ml H2O; elution: ACN/H2O (0.1% TFA, 1:3, v/v, 300 µl). The resulting eluates were analyzed using radio RP-HPLC (Chromolith^R RP-18e; 100 × 4.6 mm; Merck KGaA; gradient of 10–90% ACN in H2O (0.1% TFA) within 8 min; flow rate: 1 ml/min). For cross-validation of HPLC results, radio RP-TLC was equally performed for all samples (1 M citric acid/NaOH, pH = 5.0; Rf: Product: 0.0–0.2.0.2; ^68Ga: 0.8–1.0.8.0).

[6] = biological target: T2, SST2 (AR42J tumor) (Rattus norvegicus, UniProt P30680); assay: µPET/CT imaging with and without octreotide blocking in AR42J tumor bearing mice; type: in vivo; details: 60 min p.i.
T2 construct: endogenous in cells; host or cells: AR42J xenograft in CD1 nu/nu mice
Procedure: as §1
4–5 MBq (0.3–0.5 nmol) of the ^68Ga-labeled SST2-ligand were injected into the tail vein of the xenograft-bearing mice. After 1 h, the mice were anesthetized (isoflurane: 1.5% alveolar concentration) and a PET image acquired (20 min, 32 × 32, 0.5 mm) using an Albira PET/SPECT/CT (Bruker Biospin Corporation, Woodbridge, CT, USA) followed by a CT scan (10 min). For blocking, 20 µg octreotide (0.8 mg/kg) were co-injected with the tracer. The images were reconstructed (Albira reconstructor, version NMI3.3) and analyzed (PMOD, V6.3.4, Bruker).

[7] = set-up: method as in PMID 10774879; details: PBS (pH = 7.4)/n-octanol; cited from earlier work
[8] = co-injection of 20 µg octreotide (0.8 mg/kg)

T2 sequence (P30680 whole entry): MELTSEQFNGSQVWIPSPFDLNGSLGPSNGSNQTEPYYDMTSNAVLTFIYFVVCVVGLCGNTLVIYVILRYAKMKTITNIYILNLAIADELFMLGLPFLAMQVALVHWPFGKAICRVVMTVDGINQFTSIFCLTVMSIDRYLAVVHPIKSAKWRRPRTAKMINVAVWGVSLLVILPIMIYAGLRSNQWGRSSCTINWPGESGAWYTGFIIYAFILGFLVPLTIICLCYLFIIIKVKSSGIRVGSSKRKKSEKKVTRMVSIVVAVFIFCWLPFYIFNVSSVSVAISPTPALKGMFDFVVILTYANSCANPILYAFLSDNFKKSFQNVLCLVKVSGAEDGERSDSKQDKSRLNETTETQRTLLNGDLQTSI
T1 sequence (P02768 25-609): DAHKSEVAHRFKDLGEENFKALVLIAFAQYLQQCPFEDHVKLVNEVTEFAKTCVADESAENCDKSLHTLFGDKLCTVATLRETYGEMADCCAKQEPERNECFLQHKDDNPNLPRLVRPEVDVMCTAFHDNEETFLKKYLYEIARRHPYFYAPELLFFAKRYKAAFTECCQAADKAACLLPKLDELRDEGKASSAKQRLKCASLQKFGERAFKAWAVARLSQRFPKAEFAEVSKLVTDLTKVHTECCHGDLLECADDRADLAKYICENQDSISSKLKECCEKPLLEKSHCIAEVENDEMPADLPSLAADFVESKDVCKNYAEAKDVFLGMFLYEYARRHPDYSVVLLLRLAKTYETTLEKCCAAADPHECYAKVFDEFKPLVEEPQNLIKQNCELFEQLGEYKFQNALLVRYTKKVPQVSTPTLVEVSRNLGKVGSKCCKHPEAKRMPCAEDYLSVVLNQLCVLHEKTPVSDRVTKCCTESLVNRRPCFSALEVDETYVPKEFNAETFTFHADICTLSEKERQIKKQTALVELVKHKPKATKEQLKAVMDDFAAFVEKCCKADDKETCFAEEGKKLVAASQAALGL

## C[C@@H](O)[C@H](NC(=O)[C@@H]1CSSC[C@H](NC(=O)[C@@H](Cc2ccccc2)NC(=O)CN2CCN(CC(=O)O)CCN(CC(=O)NCCCC[C@@H](NC(=O)[C@@H](CNC(=O)C[N+](C)(C)Cc3ccc([Si](F)(C(C)(C)C)C(C)(C)C)cc3)NC(=O)[C@@H](CCC(=O)O)NC(=O)[C@@H](CCC(=O)O)NC(=O)[C@H](N)CCC(=O)O)C(=O)O)CCN(CC(=O)O)CC2)C(=O)N[C@@H](Cc2ccc(O)cc2)C(=O)N[C@H](Cc2c[nH]c3ccccc23)C(=O)N[C@@H](CCCCN)C(=O)N[C@@H]([C@@H](C)O)C(=O)N1)C(=O)O [[^18/natF][^natGa]rhTATE2.5, metal not drawn]
[1]; affinity to HSA by affinity chromatography (Chiralpak HSA column)
  HSA HPAC: 84.8%
[2]
  LogDpH=7.4: −2.30
[3]
  Internalization: 357%
[4]; adrenal glands, AR42J tumor-bearing CD1 nu/nu mice, read-out: Biodistribution Adrenal Glands
  tissue uptake at 1 h: 1.52 ± 0.21 %ID/g
[4]; blood, AR42J tumor-bearing CD1 nu/nu mice, read-out: Biodistribution Blood
  tissue uptake at 1 h: 0.32 ± 0.11 %ID/g
[4]; femur, AR42J tumor-bearing CD1 nu/nu mice, read-out: Biodistribution Femur
  tissue uptake at 1 h: 1.05 ± 0.3 %ID/g
[4]; heart, AR42J tumor-bearing CD1 nu/nu mice, read-out: Biodistribution Heart
  tissue uptake at 1 h: 0.18 ± 0.05 %ID/g
[4]; intestine, AR42J tumor-bearing CD1 nu/nu mice, read-out: Biodistribution Intestine
  tissue uptake at 1 h: 1.3 ± 0.25 %ID/g
[4]; kidney, AR42J tumor-bearing CD1 nu/nu mice, read-out: Biodistribution Kidney
  tissue uptake at 1 h: 12.5 ± 3.5 %ID/g
[4]; liver, AR42J tumor-bearing CD1 nu/nu mice, read-out: Biodistribution Liver
  tissue uptake at 1 h: 0.4 ± 0.12 %ID/g
[4]; lung, AR42J tumor-bearing CD1 nu/nu mice, read-out: Biodistribution Lung
  tissue uptake at 1 h: 2.73 ± 0.46 %ID/g
[4]; muscle, AR42J tumor-bearing CD1 nu/nu mice, read-out: Biodistribution Muscle
  tissue uptake at 1 h: 0.04 ± 0.02 %ID/g
[4]; pancreas, AR42J tumor-bearing CD1 nu/nu mice, read-out: Biodistribution Pancreas
  tissue uptake at 1 h: 11.5 ± 2.32 %ID/g
[4]; spleen, AR42J tumor-bearing CD1 nu/nu mice, read-out: Biodistribution Spleen
  tissue uptake at 1 h: 0.35 ± 0.07 %ID/g
[4]; stomach, AR42J tumor-bearing CD1 nu/nu mice, read-out: Biodistribution Stomach
  tissue uptake at 1 h: 6.46 ± 1 %ID/g
[4]; tumor (AR42J xenograft), AR42J xenograft, CD1 nu/nu mice, read-out: Biodistribution Tumor
  tissue uptake at 1 h: 18.6 ± 6.18 %ID/g
[5]
  in vitro stability: stable over 60 min
[6]; [8]
  µPET kidney activity with SST2 blocking: significantly reduced kidney activity
  µPET tumor signal with SST2 blocking: no detectable tumor signal
[6]; control mouse, 4 MBq, 0.5 nmol tracer/mouse
  µPET uptake in the tumor and kidneys: intense

## C[C@@H](O)[C@H](NC(=O)[C@@H]1CSSC[C@H](NC(=O)[C@@H](Cc2ccccc2)NC(=O)CN2CCN(CC(=O)O)CCN(CC(=O)O)CCN(CC(=O)O)CC2)C(=O)N[C@@H](Cc2ccc(O)cc2)C(=O)N[C@H](Cc2c[nH]c3ccccc23)C(=O)N[C@@H](CCCCN)C(=O)N[C@@H]([C@@H](C)O)C(=O)N1)C(=O)O [[^nat/68Ga]DOTA-TATE, metal not drawn, reference compound]
[1]
  HSA HPAC: 88.9%
[3]
  Internalization: 570%
[7]
  LogDpH=7.4: −3.69 [24]
